Measurements as given in paper PMC5655053, “Pharmacological Basis of CD101 Efficacy: Exposure Shape Matters” (Antimicrobial Agents and Chemotherapy, 2017).
Several values for one entry are separate records, joined by “and”; a condition that tells them apart may be missing. Identical values can stand only once. Like-named read-outs stand apart in the source and are kept apart here. Numbered stars: 1 amine (or outer) side, 2 acyl side, 3 side chain; on linkers, the order of the positions; unused ones are H or OH. Bridge positions count the residues as written; N and C are the ends. Square brackets hold non-standard residues; d marks the D form. Peptide text beside a SMILES is read from it. * marks the point of attachment. Orn(4R-OH,5R-OCH2CH2NMe3+) = C[N+](C)(C)CCO[C@@H](N[*:3])[C@H](O)C[C@H](N[*:1])C(=O)[*:2]; pTerphenylCO(4''-OnC5H11) = CCCCCOc1ccc(-c2ccc(-c3ccc(C(=O)*)cc3)cc2)cc1; hTyr(3S-OH,4S-OH) = N[C@H](C(=O)O)[C@H](O)[C@@H](O)c1ccc(O)cc1; Pro(3S-OH,4S-Me) = C[C@H]1CN[C@H](C(=O)O)[C@H]1O; Hyp = O=C(O)[C@@H]1C[C@@H](O)CN1

Experiments:
[1] = system: hepatocytes of Sprague-Dawdley rats; conditions: supratherapeutic (comparable) doses, 2-week repeated-dose study; cited from earlier work
Text: The echinocandin CD101 is a novel antifungal agent with activity against Aspergillus and Candida species, including azole- and echinocandin-resistant isolates ([1], [2]). This compound is a structural analog of anidulafungin but differs in certain beneficial ways with regard to toxicological and pharmacokinetic properties.

[2] = system: Candida albicans R303; experiment: Broth microdilution susceptibility testing (CLSI M27-A3); format: cell-based; conditions: C. albicans R303, CLSI M27-A3, RPMI 1640, 35°C, read at 24 h, ~50% growth inhibition, modal value of three occasions
Description: CD101 was supplied by Cidara Therapeutics, Inc. (San Diego, CA). Stock solutions of CD101 were prepared in dimethyl sulfoxide (DMSO) for the susceptibility testing. The vehicle used for dosing in the in vivo studies was 10% DMSO–1% Tween 20–saline solution. The challenge isolate utilized in these studies was Candida albicans R303. Susceptibility testing was done in accordance with the Clinical and Laboratory Standards Institute (CLSI) M27-A3 methods, using RPMI 1640 medium, an initial inoculum of 0.5 × 10^3 to 2.5 × 10^3 CFU/ml, and incubation at 35°C ([20]). MIC plates were read following 24 h of incubation, and MIC values are reported as concentrations resulting in prominent (∼50%) growth inhibition. Susceptibility testing was performed on three separate occasions. Final results were expressed as modal values. Quality control was performed on each day of testing using CLSI-recommended reference strains (C. krusei ATCC 6258 and C. parapsilosis ATCC 22019).

[3] = cited from earlier work
[4] = Single-dose i.p. pharmacokinetic study in mice, plasma, four-compartment model; format: in vivo, ICR mice; conditions: for maximum plasma concentration: female ICR mice, at first sampling (1 h), LC-MS/MS
Description: A four-compartment model best described the disposition of this agent in murine plasma. […] The coefficient of determination (r^2) for the model-predicted concentrations versus observed concentrations was 0.97. […] All model parameters were estimated with excellent precision, as indicated by a standard error of the mean (SEM) of less than 20% for 7 of 8 of the model parameters.
Healthy female ICR mice weighing 20 to 24 g were administered a single dose of CD101 via intraperitoneal (i.p.) injection. Doses of 1, 4, and 16 mg/kg of body weight were studied, utilizing 3 animals per dose level. Whole-blood samples (one sample per animal) were collected at 1, 3, 6, 12, 24, 48, 72, and 96 h postdose. Plasma was collected by centrifugation, and samples were stored at −20°C or below. Samples were analyzed using liquid chromatography with tandem mass spectrometry detection and an AB-SCIEX API 4000 mass spectrometry system. The method used in the analysis was qualified as fit for the purpose: calibration standards were matrix matched, and, for each analytical batch, triplicate calibration standards were included at the beginning of the batch, approximately in the middle, and at the end. Following analysis, quantitation is carried out by a calibration curve comprising analyte/internal standard area ratio versus concentration. Calibration standards ranged from 0.5 mg/liter (lower limit of quantitation [LLOQ]) to 100 mg/liter. Analytical batch acceptance followed the general guidance criterion that standards/quality control should be within ±20% for accuracy (percent nominal concentration) and ≤20% for precision (percent coefficient of variation). For analysis, plasma samples were quenched with acetonitrile (4:1 acetonitrile/plasma ratio) containing diclofenac as the internal standard. Animals were maintained in accordance with the criteria of the American Association for Assessment and Accreditation of Laboratory Animal Care (AAALAC). The pharmacokinetic study was approved by the Animal Research Committee of the William S. Middleton Memorial Veterans Affairs Hospital and the University of Wisconsin.
(§1) Data collected from the pharmacokinetic study described above were used to develop a pharmacokinetic model describing the disposition of CD101 in mice in S-ADAPT ([21]). The developed pharmacokinetic model, along with the unbound CD101 fraction, was used to simulate free-drug concentration-time profiles for each dosing regimen administered in the front-loaded dose studies. Free-drug AUC0–168 values were calculated through numeric integration of CD101 free-drug concentration-time profiles. Relationships between changes in log10 CFU at 168 h and free-drug AUC0–168/MIC ratios were explored.

[5] = Observation for overt toxicity in mice of the front-loaded dose studies; format: in vivo, ICR mice; conditions: any of the mice evaluated
Description: (§2) Simulated free-drug plasma concentration-time profiles of the three fractionated CD101 2 mg/kg dosing regimens are shown in Fig. 4.
A neutropenic, murine, disseminated candidiasis model was used for the evaluation of the effects of the CD101 dosing regimens on efficacy. Male or female ICR mice (n = 5 per regimen and observation time) weighing 22 ± 2 g were rendered neutropenic by treatments using the injection of cyclophosphamide 4 days prior to infection (day −4) and 1 day prior to infection (day −1) at 150 and 100 mg/kg i.p., respectively. Neutropenia was sustained for the duration of the study with cyclophosphamide doses (100 mg/kg i.p.) administered every 48 h on days 1, 3, 5, and 7 after infection. Each animal was inoculated, using a lateral tail vein injection, with 1 × 10^3 CFU of Candida albicans (isolate R303). CD101 (or vehicle) was administered 24 h postinfection via i.p. injection. Mice were euthanized with CO2 at 168 h (7 days) following the start of treatment. Mice in the control group were euthanized 0, 24, and 48 h after administration of vehicle. Paired kidneys were aseptically harvested and homogenized, and serial dilutions were plated for colony counts to determine the fungal burden (measured in CFU per gram). Kidney counts were not determined in animals that expired prior to the scheduled sacrifice time. […]

[6] = system: Candida albicans R303; experiment: Front-loaded dose studies, neutropenic murine disseminated candidiasis model; format: in vivo, ICR mice
Description: Fungi in the no-treatment control group grew well and reached a density of greater than 1 × 10^6 CFU/g by 48 h. The magnitudes of net change in log10 CFU from the baseline at 168 h were similar regardless of the fractionation schedule within the CD101 0.7 mg/kg and 7 mg/kg dosing groups. […] In the 7 mg/kg dose group, the magnitude of net change was greater than 2 log10 CFU reduction from the baseline at 168 h, regardless of the fractionation schedule. Conversely, results within the CD101 2 mg/kg group differed across the fractionation schedules. […] However, when this dose was front-loaded (i.e., delivered entirely on day 1), there was a greater than 2 log10 CFU reduction from the baseline at 168 h.
A neutropenic, murine, disseminated candidiasis model was used for the evaluation of the effects of the CD101 dosing regimens on efficacy. Male or female ICR mice (n = 5 per regimen and observation time) weighing 22 ± 2 g were rendered neutropenic by treatments using the injection of cyclophosphamide 4 days prior to infection (day −4) and 1 day prior to infection (day −1) at 150 and 100 mg/kg i.p., respectively. Neutropenia was sustained for the duration of the study with cyclophosphamide doses (100 mg/kg i.p.) administered every 48 h on days 1, 3, 5, and 7 after infection. Each animal was inoculated, using a lateral tail vein injection, with 1 × 10^3 CFU of Candida albicans (isolate R303). CD101 (or vehicle) was administered 24 h postinfection via i.p. injection. Mice were euthanized with CO2 at 168 h (7 days) following the start of treatment. Mice in the control group were euthanized 0, 24, and 48 h after administration of vehicle. Paired kidneys were aseptically harvested and homogenized, and serial dilutions were plated for colony counts to determine the fungal burden (measured in CFU per gram). Kidney counts were not determined in animals that expired prior to the scheduled sacrifice time. The front-loaded dose studies was performed under animal biosafety level 2 conditions in an Association for Assessment and Accreditation of Laboratory Animal Care-accredited vivarium, at Eurofins Panlabs Taiwan, Ltd., with the oversight of veterinarians to ensure compliance with the Eurofins Panlabs Institutional Animal Care and Use Committee regulations and the humane treatment of laboratory animals.

[7] = Simulated free-drug plasma concentration-time profiles of the fractionated regimens; parameters: species or system mouse; conditions: mice
Description: as §2, §1

[8] = four-compartment model, murine plasma, 1-16 mg/kg i.p.

CCCCCOc1ccc(-c2ccc(-c3ccc(C(=O)N[C@H]4C[C@@H](O)[C@@H](OCC[N+](C)(C)C)NC(=O)[C@@H]5[C@@H](O)[C@@H](C)CN5C(=O)[C@H]([C@@H](C)O)NC(=O)[C@H]([C@H](O)[C@@H](O)c5ccc(O)cc5)NC(=O)[C@@H]5C[C@@H](O)CN5C(=O)[C@H]([C@@H](C)O)NC4=O)cc3)cc2)cc1 [CD101] ({pTerphenylCO(4''-OnC5H11)}-[Orn(4R-OH,5R-OCH2CH2NMe3+)]T[Hyp][hTyr(3S-OH,4S-OH)]T[Pro(3S-OH,4S-Me)]; lactam 1-C)
hepatocyte findings [1]: no changes were observed
modal MIC [2]: 0.125 µg/mL
terminal half-life ([3]; humans, healthy volunteers): ~133 h
maximum plasma concentration ([4]; 1 mg/kg i.p. single dose): 3.97 mg/L
maximum plasma concentration ([4]; 4 mg/kg i.p. single dose): 13.6 mg/L
maximum plasma concentration ([4]; 16 mg/kg i.p. single dose): 52.0 mg/L
pharmacokinetics over the studied dose range ([4]; 1 to 16 mg/kg i.p., mice): linear pharmacokinetics
Q2 (distributional clearance), final estimate [4, 8]: 0.255 mL/min/kg
Q3 (distributional clearance), final estimate [4, 8]: 5.2 mL/min/kg
Q4 (distributional clearance), final estimate [4, 8]: 1.2 mL/min/kg
V1 (central compartment volume), final estimate [4, 8]: 0.201 L/kg
V2 (peripheral compartment volume), final estimate [4, 8]: 0.871 L/kg
V3 (peripheral compartment volume), final estimate [4, 8]: 0.0341 L/kg
V4 (peripheral compartment volume), final estimate [4, 8]: 0.165 L/kg
CL/F ([4]; mouse, in vivo, ip, four-compartment model, murine plasma, 1-16 mg/kg i.p., read-out: CLt (total clearance), final estimate (converted)): 0.173 mL/min/kg
overt signs of toxicities [5]: No overt signs of toxicities
log10 CFU reduction from the baseline at 168 h ([6]; total 2 mg/kg as single dose (2 mg/kg x 1), kidney burden, neutropenic ICR mice, n = 5): > 2 log10 CFU and 2 log10 CFU
log10 CFU increase from the baseline at 168 h ([6]; total 2 mg/kg daily (0.29 mg/kg/day x 7), kidney burden, neutropenic ICR mice, n = 5): > 1 log10 CFU and 1 log10 CFU
net change in log10 CFU from the baseline at 168 h ([6]; total 2 mg/kg twice weekly (1 mg/kg x 2), kidney burden, neutropenic ICR mice, n = 5): net fungal stasis
log10 CFU reduction from the baseline at 168 h ([6]; total 7 mg/kg i.p., regardless of the fractionation schedule): greater than 2 log10 CFU
free-drug AUC0-24 of single-dose regimen relative to daily regimen ([7]; 2 mg/kg total dose): 7 fold
AUC0-168 of daily 1 mg/kg regimen relative to 2 mg/kg front-loaded regimen [7]: approximately 3 fold

oritavancin [reference compound]
terminal half-life [3]: ~245 h

anidulafungin [reference compound]
hepatocyte findings [1]: hepatocellular necrosis ranging from mild to moderate
